# Patent US11111245B2, “Derivatives of N-cycloalkyl/heterocycloalkyl-4-(imidazo[1,2-a]pyridine)pyrimidin-2-amine as therapeutic agents” (Aucentra Therapeutics Pty Ltd, priority 2017, dated 2021)
# What was measured:
# CDK6/D3 = CDK6/D3 (Homo sapiens, UniProt Q00534); experiment: ADP Glo Kinase assay CDK6/D3; type: biochemical; conditions: CDK6D3; compound at 10 μM; read-out: residual activity (%) at 10 μM CDK6D3
# Outline: (§1)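 Compounds tested at 10 concentrations (10 μM to 0.5 nM, 1:3 steps) against CDK4/D1 or CDK6/D3, RB-CTF substrate, Tris pH 7.5 buffer with MgCl2, DTT and BSA.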
# CDK9/T1 = CDK9/T1 (Homo sapiens, UniProt P50750); experiment: ADP Glo Kinase assay CDK9/T1; type: biochemical; conditions: CDK9T1; read-out: CDK inhibition, Ki (μM) CDK9T1
# Sequence of CDK9/T1 (P50750 whole entry): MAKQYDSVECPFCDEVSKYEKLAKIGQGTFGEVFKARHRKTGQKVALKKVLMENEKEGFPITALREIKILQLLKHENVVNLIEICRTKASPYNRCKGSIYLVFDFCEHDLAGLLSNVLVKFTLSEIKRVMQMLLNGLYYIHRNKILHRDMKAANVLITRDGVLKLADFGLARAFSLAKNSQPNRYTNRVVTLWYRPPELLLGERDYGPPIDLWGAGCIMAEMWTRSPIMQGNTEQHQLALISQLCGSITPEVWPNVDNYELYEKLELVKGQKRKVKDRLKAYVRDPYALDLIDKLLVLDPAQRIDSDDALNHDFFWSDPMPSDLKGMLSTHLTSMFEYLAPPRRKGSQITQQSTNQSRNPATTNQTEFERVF
# Sequence of CDK9/T1 (O60563 whole entry partner): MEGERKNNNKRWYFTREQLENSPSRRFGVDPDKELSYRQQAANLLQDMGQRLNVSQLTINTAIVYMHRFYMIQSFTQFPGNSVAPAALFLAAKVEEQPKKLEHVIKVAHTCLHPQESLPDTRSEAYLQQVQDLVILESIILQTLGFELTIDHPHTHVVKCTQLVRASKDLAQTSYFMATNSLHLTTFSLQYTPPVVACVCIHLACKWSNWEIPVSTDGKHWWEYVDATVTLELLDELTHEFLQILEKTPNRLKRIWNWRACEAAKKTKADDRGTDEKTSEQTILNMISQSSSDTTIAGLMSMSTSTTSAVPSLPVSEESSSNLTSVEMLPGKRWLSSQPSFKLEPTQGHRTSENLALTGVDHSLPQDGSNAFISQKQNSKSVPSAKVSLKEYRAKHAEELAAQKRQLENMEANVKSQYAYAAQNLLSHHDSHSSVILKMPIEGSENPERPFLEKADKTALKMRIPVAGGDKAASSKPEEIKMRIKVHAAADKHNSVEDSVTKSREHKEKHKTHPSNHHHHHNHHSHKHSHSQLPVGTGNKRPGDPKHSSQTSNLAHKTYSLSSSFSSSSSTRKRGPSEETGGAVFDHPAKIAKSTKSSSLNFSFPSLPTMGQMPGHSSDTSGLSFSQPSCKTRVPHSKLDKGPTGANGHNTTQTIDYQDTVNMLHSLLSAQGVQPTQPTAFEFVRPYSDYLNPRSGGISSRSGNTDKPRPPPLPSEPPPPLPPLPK
# Outline: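 ADP Glo luminescence, in-house: CDK4/D1, CDK6/D3 on RB-CTF substrate (Tris pH 7.5, MgCl2, DTT, BSA); CDK9/T1 on RBER-IRStide. Reaction 40 min, 37° C after ATP addition. 10-point 1:3 series, 10 μM to 0.5 nM. IC50 by 4-parameter logistic; Ki derived using ATP Km.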
# leukemia cell lines = experiment: Resazurin cell viability assay on leukemia cell lines (72 h growth inhibition, GI50); type: cell-based; conditions: Homo sapiens, MV4-11 cells
# Outline: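 GI50 values from non-linear regression of growth inhibition; read-out was MTT for solid tumour cells, resazurin for leukaemia cells.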
# CDK4/D1 = CDK4/D1 (Homo sapiens, UniProt P11802); experiment: ADP Glo Kinase assay CDK4/D1; type: biochemical; conditions: CDK4D1; for remaining activity at 10 µM: compound at 10 μM, read-out: residual activity (%) at 10 μM CDK4D1
# Sequence of CDK4/D1 (P11802 whole entry): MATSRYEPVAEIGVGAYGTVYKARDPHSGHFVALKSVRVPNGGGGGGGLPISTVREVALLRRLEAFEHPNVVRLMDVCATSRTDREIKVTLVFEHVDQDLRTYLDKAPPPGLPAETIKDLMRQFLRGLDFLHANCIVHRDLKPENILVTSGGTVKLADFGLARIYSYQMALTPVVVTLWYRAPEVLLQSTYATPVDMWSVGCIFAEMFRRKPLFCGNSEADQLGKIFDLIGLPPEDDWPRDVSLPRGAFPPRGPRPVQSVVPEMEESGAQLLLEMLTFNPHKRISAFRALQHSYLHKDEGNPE
# Sequence of CDK4/D1 (P24385 whole entry partner): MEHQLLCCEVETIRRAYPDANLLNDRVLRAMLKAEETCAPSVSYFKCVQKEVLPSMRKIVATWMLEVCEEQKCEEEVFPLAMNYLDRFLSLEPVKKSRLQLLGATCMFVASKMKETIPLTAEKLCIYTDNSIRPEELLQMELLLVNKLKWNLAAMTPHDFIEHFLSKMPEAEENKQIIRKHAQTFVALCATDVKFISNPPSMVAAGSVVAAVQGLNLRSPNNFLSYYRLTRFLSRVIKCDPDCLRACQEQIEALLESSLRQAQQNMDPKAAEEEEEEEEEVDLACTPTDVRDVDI
# Outline: as §1
# CDKs and other kinases [1] = biological target: T1, CDKs and other kinases (Homo sapiens, UniProt P06493); experiment: Radiometric kinase assay (Eurofins Pharma Discovery or Reaction Biology Corporation Kinase Profiler); type: biochemical; conditions: CDK1B; for Ki: read-out: CDK inhibition, Ki (μM) CDK1B; for remaining activity at 10 µM: compound at 10 μM, read-out: residual activity (%) at 10 μM CDK1B
# T1 construct: other: CDK1B; residual activity (%) at 10 μM CDK1B; compound at 10 μM
# T1 sequence (P06493 whole entry): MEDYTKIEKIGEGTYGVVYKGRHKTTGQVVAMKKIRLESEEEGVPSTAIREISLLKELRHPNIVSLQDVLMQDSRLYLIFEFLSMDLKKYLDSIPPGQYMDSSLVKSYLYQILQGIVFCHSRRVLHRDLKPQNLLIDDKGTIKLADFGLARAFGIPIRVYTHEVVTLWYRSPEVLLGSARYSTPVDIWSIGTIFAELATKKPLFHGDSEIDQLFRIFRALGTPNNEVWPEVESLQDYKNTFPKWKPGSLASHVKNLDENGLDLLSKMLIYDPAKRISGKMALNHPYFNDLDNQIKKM
# Outline: (§2)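 Other CDKs and further kinases were profiled externally by radiometric assay. In-house ADP Glo assays covered CDK4/D1 and CDK6/D3 (RB-CTF substrate, pH 7.5 Tris buffer with MgCl2, DTT, BSA) and CDK9/T1 (RBER-IRStide substrate), 40 min at 37° C.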
# CDKs and other kinases [2] = biological target: T2, CDKs and other kinases (Homo sapiens, UniProt P50613); experiment: as above; type: biochemical; conditions: CDK7H; for Ki: read-out: CDK inhibition, Ki (μM) CDK7H; for remaining activity at 10 µM: compound at 10 μM, read-out: residual activity (%) at 10 μM CDK7H
# T2 construct: other: CDK7H; residual activity (%) at 10 μM CDK7H; compound at 10 μM
# T2 sequence (P50613 whole entry): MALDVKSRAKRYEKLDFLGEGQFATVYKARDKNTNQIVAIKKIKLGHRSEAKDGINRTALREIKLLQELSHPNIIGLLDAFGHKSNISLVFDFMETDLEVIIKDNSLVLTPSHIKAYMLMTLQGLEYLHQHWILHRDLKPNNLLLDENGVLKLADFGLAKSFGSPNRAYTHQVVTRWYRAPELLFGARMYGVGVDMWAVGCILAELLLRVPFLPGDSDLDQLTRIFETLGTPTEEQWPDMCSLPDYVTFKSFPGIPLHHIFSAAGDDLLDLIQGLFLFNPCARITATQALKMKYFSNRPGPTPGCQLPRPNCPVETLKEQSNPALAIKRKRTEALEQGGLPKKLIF
# Outline: as §2
# CDKs and other kinases [3] = biological target: T3, CDKs and other kinases (Homo sapiens, UniProt P24941); experiment: as above; type: biochemical; conditions: CDK2A; for Ki: read-out: CDK inhibition, Ki (μM) CDK2A; for remaining activity at 10 µM: compound at 10 μM, read-out: residual activity (%) at 10 μM CDK2A
# T3 construct: other: CDK2A; residual activity (%) at 10 μM CDK2A; compound at 10 μM
# Outline: as §2
# Sequence of CDK6/D3 (Q00534 whole entry): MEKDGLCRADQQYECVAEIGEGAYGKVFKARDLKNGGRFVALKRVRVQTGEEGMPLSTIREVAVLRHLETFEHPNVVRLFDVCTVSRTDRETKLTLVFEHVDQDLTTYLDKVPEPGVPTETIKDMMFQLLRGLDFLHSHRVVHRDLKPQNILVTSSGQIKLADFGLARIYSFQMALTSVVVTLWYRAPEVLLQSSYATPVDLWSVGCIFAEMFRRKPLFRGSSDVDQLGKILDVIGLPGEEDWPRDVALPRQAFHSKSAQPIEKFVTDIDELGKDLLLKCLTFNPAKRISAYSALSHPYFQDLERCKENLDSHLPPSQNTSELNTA
# Sequence of CDK6/D3 (P30281 whole entry partner): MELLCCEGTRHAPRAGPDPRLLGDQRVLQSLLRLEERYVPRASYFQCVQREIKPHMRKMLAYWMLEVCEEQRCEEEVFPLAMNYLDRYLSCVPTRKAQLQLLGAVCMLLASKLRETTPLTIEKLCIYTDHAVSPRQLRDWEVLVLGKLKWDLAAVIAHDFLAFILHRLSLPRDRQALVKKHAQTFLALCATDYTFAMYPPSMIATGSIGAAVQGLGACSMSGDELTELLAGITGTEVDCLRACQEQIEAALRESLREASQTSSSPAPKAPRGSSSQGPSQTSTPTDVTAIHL
smiles,measurement,setting,value
"N[C@H]1CC[C@H](Nc2ncc(F)c(-c3cnc4ccc(Nc5ccccc5)cn34)n2)CC1 [Compound 6, (1r,4r)-N^1-(5-Fluoro-4-(6-(phenylamino)imidazo[1,2-a]pyridin-3-yl)pyrimidin-2-yl)cyclohexane-1,4-diamine]",remaining activity at 10 µM,CDK6/D3,16%
same,Ki,CDK9/T1,0.003 µM
same,GI50,leukemia cell lines,0.002 ± 0.0005 µM
same,remaining activity at 10 µM,CDK4/D1,11%
same,Ki,CDKs and other kinases [1],0.013 µM
same,Ki,CDKs and other kinases [2],0.016 µM
same,Ki,CDKs and other kinases [3],0.009 µM
"N[C@H]1CC[C@H](Nc2ncc(Cl)c(-c3cnc4c(Br)cc(C(F)(F)F)cn34)n2)CC1 [Compound 14, (1r,4r)-N^1-(4-(8-Bromo-6-(trifluoromethyl)imidazo[1,2-a]pyridin-3-yl)-5-chloropyrimidin-2-yl)cyclohexane-1,4-diamine]",remaining activity at 10 µM,CDK6/D3,17%
same,Ki,CDK9/T1,0.007 µM
same,GI50,leukemia cell lines,0.368 ± 0.129 µM
same,remaining activity at 10 µM,CDK4/D1,3%
same,Ki,CDKs and other kinases [1],0.755 µM
same,Ki,CDKs and other kinases [2],0.04 µM
same,Ki,CDKs and other kinases [3],0.115 µM
"Cc1cnc(NC2CCCC(N)C2)nc1-c1cnc2ccc(Nc3cccnc3)cn12 (centres unmarked) [Compound 95, N^1-(5-Methyl-4-(6-(pyridin-3-ylamino)imidazo[1,2-a]pyridin-3-yl)pyrimidin-2-yl)cyclohexane-1,3-diamine]",remaining activity at 10 µM,CDK6/D3,76%
same,Ki,CDK9/T1,0.198 µM
same,GI50,leukemia cell lines,0.646 ± 0.129 µM
same,remaining activity at 10 µM,CDK4/D1,76%
same,remaining activity at 10 µM,CDKs and other kinases [1],59%
same,remaining activity at 10 µM,CDKs and other kinases [2],33%
same,remaining activity at 10 µM,CDKs and other kinases [3],28%
"Cc1cnc(N[C@H]2CC[C@H](N)CC2)nc1-c1cnc2ccc(C(F)(F)F)cn12 [Compound 9, (1r,4r)-N^1-(5-Methyl-4-(6-(trifluoromethyl)imidazo[1,2-a]pyridin-3-yl)pyrimidin-2-yl)cyclohexane-1,4-diamine]",remaining activity at 10 µM,CDK6/D3,58%
same,Ki,CDK9/T1,0.009 µM
same,GI50,leukemia cell lines,0.008 ± 0.002 µM
same,remaining activity at 10 µM,CDK4/D1,45%
same,Ki,CDKs and other kinases [1],0.266 µM
same,Ki,CDKs and other kinases [2],0.23 µM
same,Ki,CDKs and other kinases [3],0.08 µM
"N[C@H]1CC[C@H](Nc2ncc(F)c(-c3cnc4ccc(-c5ccc(CN6CCOCC6)cc5)cn34)n2)CC1 [Compound 47, (1r,4r)-N^1-(5-Fluoro-4-(6-(4-(morpholinomethyl)phenyl)imidazo[1,2-a]pyridin-3-yl)pyrimidin-2-yl)cyclohexane-1,4-diamine]",remaining activity at 10 µM,CDK6/D3,16%
same,Ki,CDK9/T1,0.004 µM
same,GI50,leukemia cell lines,0.003 ± 0.001 µM
same,remaining activity at 10 µM,CDK4/D1,4%
same,remaining activity at 10 µM,CDKs and other kinases [1],5%
same,Ki,CDKs and other kinases [2],0.075 µM
same,remaining activity at 10 µM,CDKs and other kinases [3],2%
"N[C@H]1CC[C@H](Nc2ncc(Cl)c(-c3cnc4ccc(NC(=O)c5ccccc5)cn34)n2)CC1 [Compound 87, N-(3-(2-(((1r,4r)-4-Aminocyclohexyl)amino)-5-chloropyrimidin-4-yl)imidazo[1,2-a]pyridin-6-yl) benzamide]",remaining activity at 10 µM,CDK6/D3,39%
same,Ki,CDK9/T1,0.073 µM
same,GI50,leukemia cell lines,0.135 ± 0.057 µM
same,remaining activity at 10 µM,CDK4/D1,73%
same,remaining activity at 10 µM,CDKs and other kinases [1],31%
same,remaining activity at 10 µM,CDKs and other kinases [2],14%
same,remaining activity at 10 µM,CDKs and other kinases [3],19%
"N[C@H]1CC[C@H](Nc2ncc(Cl)c(-c3cnc4ccc(-c5ccccc5)cn34)n2)CC1 [Compound 79, (1r,4r)-N^1-(5-Chloro-4-(6-phenylimidazo[1,2-a]pyridin-3-yl)pyrimidin-2-yl)cyclohexane-1,4-diamine]",remaining activity at 10 µM,CDK6/D3,80%
same,Ki,CDK9/T1,0.004 µM
same,GI50,leukemia cell lines,0.008 ± 0.001 µM
same,remaining activity at 10 µM,CDK4/D1,13%
same,Ki,CDKs and other kinases [1],0.27 µM
same,Ki,CDKs and other kinases [2],0.079 µM
same,Ki,CDKs and other kinases [3],0.071 µM
"N[C@H]1CC[C@H](Nc2ncc(F)c(-c3cnc4ccc(-c5ccccc5)cn34)n2)CC1 [Compound 5, (1r,4r)-N^1-(5-Fluoro-4-(6-phenylimidazo[1,2-a]pyridin-3-yl)pyrimidin-2-yl)cyclohexane-1,4-diamine]",remaining activity at 10 µM,CDK6/D3,16%
same,Ki,CDK9/T1,0.002 µM
same,GI50,leukemia cell lines,0.003 ± 0.001 µM
same,remaining activity at 10 µM,CDK4/D1,0%
same,Ki,CDKs and other kinases [1],0.014 µM
same,Ki,CDKs and other kinases [2],0.075 µM
same,Ki,CDKs and other kinases [3],0.006 µM
"N[C@H]1CC[C@H](Nc2ncc(Cl)c(-c3cnc4ccc(C(F)(F)F)cn34)n2)CC1 [Compound 13, (1r,4r)-N^1-(5-Chloro-4-(6-(trifluoromethyl)imidazo[1,2-a]pyridin-3-yl)pyrimidin-2-yl)cyclohexane-1,4-diamine]",remaining activity at 10 µM,CDK6/D3,59%
same,Ki,CDK9/T1,0.024 µM
same,GI50,leukemia cell lines,0.022 ± 0.002 µM
same,remaining activity at 10 µM,CDK4/D1,0%
same,Ki,CDKs and other kinases [1],0.329 µM
same,Ki,CDKs and other kinases [2],0.052 µM
same,Ki,CDKs and other kinases [3],0.063 µM
"Cc1cnc(N[C@H]2CC[C@H](O)CC2)nc1-c1cnc2ccccn12 [Compound 107, (1r,4r)-4-((4-(Imidazo[1,2-a]pyridin-3-yl)-5-methylpyrimidin-2-yl)amino)cyclohexan-1-ol]",remaining activity at 10 µM,CDK6/D3,54%
same,Ki,CDK9/T1,0.161 µM
same,GI50,leukemia cell lines,1.42 ± 0.652 µM
same,remaining activity at 10 µM,CDK4/D1,37%
same,remaining activity at 10 µM,CDKs and other kinases [1],47%
same,remaining activity at 10 µM,CDKs and other kinases [2],34%
same,remaining activity at 10 µM,CDKs and other kinases [3],5%
"Cc1cnc(N[C@H]2CC[C@H](N)CC2)nc1-c1cnc2ccc(-c3ccc(CN4CCOCC4)cc3)cn12 [Compound 60, (1r,4r)-N^1-(5-Methyl-4-(6-(4-(morpholinomethyl)phenyl)imidazo[1,2-a]pyridin-3-yl)pyrimidin-2-yl)cyclohexane-1,4-diamine]",remaining activity at 10 µM,CDK6/D3,89%
same,Ki,CDK9/T1,0.41 µM
same,GI50,leukemia cell lines,0.057 ± 0.006 µM
same,residual activity at 10 µM,CDK4/D1,115%
same,remaining activity at 10 µM,CDKs and other kinases [1],57%
same,remaining activity at 10 µM,CDKs and other kinases [2],37%
same,remaining activity at 10 µM,CDKs and other kinases [3],62%
"Cc1cnc(N[C@H]2CC[C@H](N)CC2)nc1-c1cnc2ccc(Nc3cnccn3)cn12 [Compound 70, (1r,4r)-N^1-(5-Methyl-4-(6-(pyrazin-2-ylamino)imidazo [1,2-a]pyridin-3-yl)pyrimidin-2-yl)cyclohexane-1,4-diamine]",remaining activity at 10 µM,CDK6/D3,70%
same,Ki,CDK9/T1,0.62 µM
same,GI50,leukemia cell lines,0.212 ± 0.104 µM
same,remaining activity at 10 µM,CDK4/D1,31%
same,Ki,CDKs and other kinases [1],4.32 µM
same,Ki,CDKs and other kinases [2],3.28 µM
same,Ki,CDKs and other kinases [3],1.42 µM
"Cc1cnc(N[C@H]2CC[C@H](N)CC2)nc1-c1cnc2ccc(-c3ncccc3F)cn12 [Compound 30, (1r,4r)-N^1-(4-(6-(3-Fluoropyridin-2-yl)imidazo[1,2-a]pyridin-3-yl)-5-methylpyrimidin-2-yl)cyclohexane-1,4-diamine]",remaining activity at 10 µM,CDK6/D3,39%
same,Ki,CDK9/T1,0.12 µM
same,GI50,leukemia cell lines,0.017 ± 0.006 µM
same,remaining activity at 10 µM,CDK4/D1,17%
same,remaining activity at 10 µM,CDKs and other kinases [1],67%
same,remaining activity at 10 µM,CDKs and other kinases [2],13%
same,remaining activity at 10 µM,CDKs and other kinases [3],49%
"COc1cccc(-c2ccc3ncc(-c4nc(N[C@H]5CC[C@H](N)CC5)ncc4C)n3c2)c1 [Compound 57, (1r,4r)-N^1-(4-(6-(3-Methoxyphenyl)imidazo[1,2-a]pyridin-3-yl)-5-methylpyrimidin-2-yl)cyclohexane-1,4-diamine]",remaining activity at 10 µM,CDK6/D3,39%
same,Ki,CDK9/T1,0.069 µM
same,GI50,leukemia cell lines,0.067 ± 0.014 µM
same,remaining activity at 10 µM,CDK4/D1,45%
same,remaining activity at 10 µM,CDKs and other kinases [1],47%
same,remaining activity at 10 µM,CDKs and other kinases [2],17%
same,remaining activity at 10 µM,CDKs and other kinases [3],31%
"N[C@H]1CC[C@H](Nc2ncc(Cl)c(-c3cnc4ccc(Br)cn34)n2)CC1 [Compound 12, (1r,4r)-N^1-(4-(6-Bromoimidazo[1,2-a]pyridin-3-yl)-5-chloropyrimidin-2-yl)cyclohexane-1,4-diamine]",remaining activity at 10 µM,CDK6/D3,41%
same,Ki,CDK9/T1,0.008 µM
same,GI50,leukemia cell lines,0.006 ± 0.001 µM
same,remaining activity at 10 µM,CDK4/D1,4%
same,Ki,CDKs and other kinases [1],0.121 µM
same,Ki,CDKs and other kinases [2],0.032 µM
same,Ki,CDKs and other kinases [3],0.013 µM
"Cc1cnc(NC2CCOCC2)nc1-c1cnc2ccc(Nc3cncnc3)cn12 [Compound 104, 3-(5-Methyl-2-((tetrahydro-2H-pyran-4-yl)amino)pyrimidin-4-yl)-N-(pyrimidin-5-yl)imidazo[1,2-a]pyridin-6-amine]",remaining activity at 10 µM,CDK6/D3,73%
same,Ki,CDK9/T1,0.155 µM
same,GI50,leukemia cell lines,4.76 ± 1.16 µM
same,remaining activity at 10 µM,CDK4/D1,70%
same,remaining activity at 10 µM,CDKs and other kinases [1],4%
same,remaining activity at 10 µM,CDKs and other kinases [2],57%
same,remaining activity at 10 µM,CDKs and other kinases [3],2%
"Cc1cnc(N[C@H]2CC[C@H](N)CC2)nc1-c1cnc2cc(-c3cccnc3)ccn12 [Compound 54, (1r,4r)-N^1-(5-Methyl-4-(7-(pyridin-3-yl)imidazo[1,2-a]pyridin-3-yl)pyrimidin-2-yl)cyclohexane-1,4-diamine]",remaining activity at 10 µM,CDK6/D3,0%
same,Ki,CDK9/T1,0.11 µM
same,GI50,leukemia cell lines,0.018 ± 0.004 µM
same,remaining activity at 10 µM,CDK4/D1,0%
same,remaining activity at 10 µM,CDKs and other kinases [1],29%
same,remaining activity at 10 µM,CDKs and other kinases [2],6%
same,remaining activity at 10 µM,CDKs and other kinases [3],5%
